Results: ChEMBL document CHEMBL1150867, “New sesquiterpene hydroquinones from a Taiwanese marine sponge, Hippospongia metachromia” (J Nat Prod, 2001)
Values after ≈ are worked out from the molar mass of the structure shown.

Key:
[1] = Cytotoxicity against human KB16 cells by methylene blue dye assay
COLO 205 = assay: Cytotoxicity against human COLO205 cells by methylene blue dye assay

Row | SMILES | IC50 [1] | IC50 (COLO 205)
1 | C=C1[C@H](C)CCC[C@]1(C)CC/C(C)=C/CC1=C(OC)C(=O)C=C(OC)C1=O [METACHROMIN A MONOMETHYLATE] | > 10 µg/mL | > 10 µg/mL
2 | C=C1[C@H](C)CCC[C@]1(C)CC[C@@]1(C)C=Cc2c(OC(C)=O)c(OC)cc(OC)c2O1 [METACHROMIN B MONO METHYLATE] | 1.32 µg/mL (≈ 3.18 µM) | 0.53 µg/mL (≈ 1.28 µM)
3 | C=C1[C@H](C)CCC[C@]1(C)CC[C@@]1(C)C=Cc2c(OC(C)=O)c(OC(C)=O)cc(OC)c2O1 [HIPPOCHROMIN A DIACETATE] | 3.06 µg/mL | 0.22 µg/mL
4 | C=C1[C@H](C)CCC[C@]1(C)CC[C@@]1(C)C=Cc2c(O)c(OC)cc(OC)c2O1 [METACHROMIN B] | 0.68 µg/mL (≈ 1.83 µM) | 0.26 µg/mL (≈ 0.698 µM)
5 | C=C1[C@H](C)CCC[C@]1(C)CC[C@@]1(C)C=CC2=C(O1)C(=O)C=C(OC)C2=O [METACHROMIN E] | > 10 µg/mL | > 10 µg/mL
6 | C=C1[C@H](C)CCC[C@]1(C)CC/C(C)=C/CC1=C(O)C(=O)C=C(OC)C1=O [METACHROMIN A] | 1.8 µg/mL (≈ 5.02 µM) | 0.1 µg/mL (≈ 0.279 µM)
7 | C=C1[C@H](C)CCC[C@]1(C)CC[C@@]1(C)C=Cc2c(OC(C)=O)c(OC)cc(OC(C)=O)c2O1 [HIPPOCHROMIN B DIACETATE] | > 10 µg/mL | > 10 µg/mL
